Reference: patent publication US9138398B2, “Cationic alcohols and uses thereof” (Living Proof, Inc., priority 2009, dated 2015)

Test: Contact angle measurements of hair fiber (Cahn DCA-312 tensiometer)
Details: 1.5% Example 15 in conditioner C2, 20 cycles, versus placebo conditioner C1
Excerpt: As described previously, improving upon benefits such as hydrophobicity, shine and tactile properties leads to the perception of healthier, more conditioned hair. Contact angle measurement has proven to be a viable method to measure the degree of hydrophobicity of hair. In principle, it measures the angle at the point of contact of a liquid with a surface. If the surface is highly hydrophobic (such as virgin, untreated hair), the angle of the water droplet at the interface would be greater than 90°. Likewise, a hydrophilic surface would cause the water droplet to fall flat, and the angle would be close to 0°.
Virgin black hair tresses (1.5 g each, from International Hair Importers) were bleached once with a homogeneous mixture of Clairol Pure White 20V hydrogen peroxide solution (45 ml) and Clairol bleach powder Ultra Concentrate BW2000 (6.75 g) for 10 min at 50° C. The tresses were shampooed with a 7.5% Sodium Lauryl Sulfate solution twice and air-dried for 24 h. […]
Contact angle measurements were performed with a Cahn DCA-312 tensiometer. […] The water surface tension was determined with a platinum DuNuoy ring (Cat 14-812-5) to be 70.6 mN/m. […]
The hair fiber diameter was measured with a precision micrometer (Mitutoyo Cat 293-761-30). […] The advancing and receding contact angles were measured for each sample, with runs performed in triplicate.

In the case of `C[N+](C)(CC[N+](C)(C)CC(O)COCC(F)(F)C(F)F)CC(O)COCC(F)(F)C(F)F` (stereo not shown) [Example 15], the “Change of contact angle of bleached hair (hydrophobicity), in words” value is reported as “significantly increased the contact angle”.
